Test results: US20220267352A1, “RAPAMYCIN ANALOGS AND USES THEREOF” (Anakuria Therapeutics, Inc., priority 2021, published 2022)

Legend:
[1] = test system: p-p70 S6 Kinase (Thr389) in MCF-7 cells; test: AlphaLISA Ultra pS6K1 assay; type: cell-based; settings: Homo sapiens, 1.5 h; MCF7 cells, 90 min
Method: Example 55: AlphaLISA Ultra pS6K1 Assay
(§1) Assay Protocol: • 1. Seed MCF-7 cells in Corning 3701 plate and incubate for 20˜24 hour. 12,000˜16,000 cells will be seeded in 36 μL medium per well. • 2. Change the culture medium with fresh medium and incubate for another 2 hours. • 3. Add 12 μL (4×) compounds into the cell plate by HAMILTON. Final DMSO concentration is 0.5%. Incubate for 90 minutes. • 4. Aspirate 38 μL by HAMILTON, 10 μL rest per well. • 5. Add 10 μL 2× lysis buffer using HAMILTON; total volume in wells is 20 μL. Allow cells to shake for 30 min. Cover plate by plastic foil and store plate at −80° C. up to analysis. • 6. Thaw cell lysate at RT and transfer 10 μL lysate to assay plate (Optiplate-384). • 7. Add 5 μL acceptor beads into assay plate and incubation for 2 hours • 8. Add 5 μL donor beads and incubation for 2 hours • 9. Count the plate by EnSpire Multimode Plate Reader

[2] = test system: p-Akt 1/2/3 (Ser473) in MCF-7 cells; test: AlphaLISA Ultra pAKT assay; type: cell-based; settings: Homo sapiens, 1.5 h; MCF7 cells, 90 min
Method: Example 56: AlphaLISA Ultra pAKT Assay
as §1, with “1.” for “1. Seed”, “16,000˜20,000” for “12,000˜16,000”, “90 minutes.” for “2 hours.”, “Incubate for 90 minutes. • 4.” left out

Structure (SMILES) | IC50 [1] [nM] | IC50 [2] [nM]
COCCO[C@@H]1CC[C@@H](C[C@@H](C)[C@@H]2CC(=O)[C@H](C)/C=C(\C)[C@@H](O)[C@@H](OC)C(=O)[C@H](C)C[C@H](C)/C=C/C=C/C=C(\C)[C@H](OC[C@H]3COCCO3)C[C@@H]3CC[C@@H](C)[C@@](O)(O3)C(=O)C(=O)N3CCCC[C@H]3C(=O)O2)C[C@H]1OC [I-63, (1R,9S,12S,15R,16E,18R,19R,21R,23S,24E,26E,28E,30R,32S,35R)-30-[[(2R)-1,4-dioxan-2-yl]methoxy]-1,18-dihydroxy-19-methoxy-12-[(1R)-2-[(1S,3R,4R)-3-methoxy-4-(2-methoxyethoxy)cyclohexyl]-1-methyl-ethyl]-15,17,21,23,29,35-hexamethyl-11,36-dioxa-4-azatricyclo[30.3.1.0^4,9]hexatriaconta-16,24,26,28-tetraene-2,3,10,14,20-pentone] | 1 to 10 | –
COCCO[C@@H]1CC[C@@H](C[C@@H](C)[C@@H]2CC(=O)[C@H](C)/C=C(\C)[C@@H](O)[C@@H](OC)C(=O)[C@H](C)C[C@H](C)/C=C/C=C/C=C(\C)C(OCc3cnccn3)C[C@@H]3CC[C@@H](C)[C@@](O)(O3)C(=O)C(=O)N3CCCC[C@H]3C(=O)O2)C[C@H]1OC (stereo partly drawn) [I-68, (1R,9S,12S,15R,16E,18R,19R,21R,23S,24E,26E,28E,32S,35R)-1,18-dihydroxy-19-methoxy-12-[(1R)-2-[(1S,3R,4R)-3-methoxy-4-(2-methoxyethoxy)cyclohexyl]-1-methyl-ethyl]-15,17,21,23,29,35-hexamethyl-30-(pyrazin-2-ylmethoxy)-11,36-dioxa-4-azatricyclo[30.3.1.0^4,9]hexatriaconta-16,24,26,28-tetraene-2,3,10,14,20-pentone] | < 1 | –
COCCO[C@@H]1CC[C@@H](C[C@@H](C)[C@@H]2CC(=O)[C@H](C)/C=C(\C)[C@@H](O)[C@@H](OC)C(=O)[C@H](C)C[C@H](C)/C=C/C=C/C=C(\C)[C@H](OC[C@@H]3COCCO3)C[C@@H]3CC[C@@H](C)[C@@](O)(O3)C(=O)C(=O)N3CCCC[C@H]3C(=O)O2)C[C@H]1OC [I-65, (1R,9S,12S,15R,16E,18R,19R,21R,23S,24E,26E,28E,30R,32S,35R)-30-[[(2S)-1,4-dioxan-2-yl]methoxy]-1,18-dihydroxy-19-methoxy-12-[(1R)-2-[(1S,3R,4R)-3-methoxy-4-(2-methoxyethoxy)cyclohexyl]-1-methyl-ethyl]-15,17,21,23,29,35-hexamethyl-11,36-dioxa-4-azatricyclo[30.3.1.0^4,9]hexatriaconta-16,24,26,28-tetraene-2,3,10,14,20-pentone] | 1 to 10 | –
CO[C@@H]1/C(C)=C/[C@@H](C)C(=O)C[C@@H]([C@H](C)C[C@@H]2CC[C@@H](OP(C)(C)=O)[C@H](OC)C2)OC(=O)[C@@H]2CCCCN2C(=O)C(=O)[C@]2(O)O[C@@H](CC[C@H]2C)CC(OCC2COCCO2)/C(C)=C/C=C/C=C/[C@@H](C)C[C@@H](C)C(=O)[C@@H]1OC (stereo partly drawn) [I-24, (1R,2R,4S)-4-((2R)-2-((3S,6R,7E,9R,10R,12R,14S,15E,17E,19E,23S,26R,27R,34aS)-21-((1,4-dioxan-2-yl)methoxy)-27-hydroxy-9,10-dimethoxy-6,8,12,14,20,26-hexamethyl-1,5,11,28,29-pentaoxo-1,4,5,6,9,10,11,12,13,14,21,22,23,24,25,26,27,28,29,31,32,33,34,34a-tetracosahydro-3H-23,27-epoxypyrido[2,1-c][1]oxa[4]azacyclohentriacontin-3-yl)propyl)-2-methoxycyclohexyl dimethylphosphinate] | – | ≥ 1000
CO[C@@H]1/C(C)=C/[C@@H](C)C(=O)C[C@@H]([C@H](C)C[C@@H]2CC[C@@H](OP(C)(C)=O)[C@H](OC)C2)OC(=O)[C@@H]2CCCCN2C(=O)C(=O)[C@]2(O)O[C@@H](CC[C@H]2C)CC(OCCOCCOC2COC2)/C(C)=C/C=C/C=C/[C@@H](C)C[C@@H](C)C(=O)[C@@H]1OC (stereo partly drawn) [I-73, (1R,9S,12S,15R,16E,18R,19R,21R,23S,24E,26E,28E,32S,35R)-12-[(1R)-2-[(1S,3R,4R)-4-dimethylphosphoryloxy-3-methoxy-cyclohexyl]-1-methyl-ethyl]-1-hydroxy-18,19-dimethoxy-15,17,21,23,29,35-hexamethyl-30-[2-[2-(oxetan-3-yloxy)ethoxy]ethoxy]-11,36-dioxa-4-azatricyclo[30.3.1.04,9]hexatriaconta-16,24,26,28-tetraene-2,3,10,14,20-pentone] | 10 to 100 | –

Second part, the molecule after the results:

IC50 [1] [nM] | IC50 [2] [nM] | Structure (SMILES)
< 1 | – | CO[C@@H]1C[C@H](C[C@@H](C)[C@@H]2CC(=O)[C@H](C)/C=C(\C)[C@@H](O)[C@@H](OC)C(=O)[C@H](C)C[C@H](C)/C=C/C=C/C=C(\C)[C@@H](OCCOC3COC3)C[C@@H]3CC[C@@H](C)[C@@](O)(O3)C(=O)C(=O)N3CCCC[C@H]3C(=O)O2)CC[C@H]1O [I-72, (1R,9S,12S,15R,16E,18R,19R,21R,23S,24E,26E,28E,30S,32S,35R)-1,18-dihydroxy-12-[(1R)-2-[(1S,3R,4R)-4-hydroxy-3-methoxy-cyclohexyl]-1-methyl-ethyl]-19-methoxy-15,17,21,23,29,35-hexamethyl-30-[2-(oxetan-3-yloxy)ethoxy]-11,36-dioxa-4-azatricyclo[30.3.1.0^4,9]hexatriaconta-16,24,26,28-tetraene-2,3,10,14,20-pentone]
– | ≥ 1000 | CO[C@@H]1/C(C)=C/[C@@H](C)C(=O)C[C@@H]([C@H](C)C[C@@H]2CC[C@@H](OCCO)[C@H](OC)C2)OC(=O)[C@@H]2CCCCN2C(=O)C(=O)[C@]2(O)O[C@@H](CC[C@H]2C)CC(OCCOC2COC2)/C(C)=C/C=C/C=C/[C@@H](C)C[C@@H](C)C(=O)[C@@H]1OC (stereo partly drawn) [I-87, (3S,6R,7E,9R,10R,12R,14S,15E,17E,19E,23S,26R,27R,34aS)-27-hydroxy-3-((R)-1-((1S,3R,4R)-4-(2-hydroxyethoxy)-3-methoxycyclohexyl)propan-2-yl)-9,10-dimethoxy-6,8,12,14,20,26-hexamethyl-21-(2-(oxetan-3-yloxy)ethoxy)-9,10,12,13,14,21,22,23,24,25,26,27,32,33,34,34a-hexadecahydro-3H-23,27-epoxypyrido[2,1-c][1]oxa[4]azacyclohentriacontine-1,5,11,28,29(4H,6H,31H)-pentaone]
< 1 | – | CO[C@@H]1C[C@H](C[C@@H](C)[C@@H]2CC(=O)[C@H](C)/C=C(\C)[C@@H](O)[C@@H](OC)C(=O)[C@H](C)C[C@H](C)/C=C/C=C/C=C(\C)C(OCc3cnccn3)C[C@@H]3CC[C@@H](C)[C@@](O)(O3)C(=O)C(=O)N3CCCC[C@H]3C(=O)O2)CC[C@H]1OCCO (stereo partly drawn) [I-67, (1R,9S,12S,15R,16E,18R,19R,21R,23S,24E,26E,28E,32S,35R)-1,18-dihydroxy-12-[(1R)-2-[(1S,3R,4R)-4-(2-hydroxyethoxy)-3-methoxy-cyclohexyl]-1-methyl-ethyl]-19-methoxy-15,17,21,23,29,35-hexamethyl-30-(pyrazin-2-ylmethoxy)-11,36-dioxa-4-azatricyclo[30.3.1.0^4,9]hexatriaconta-16,24,26,28-tetraene-2,3,10,14,20-pentone]
1 to 10 | – | CO[C@@H]1C[C@H](C[C@@H](C)[C@@H]2CC(=O)[C@H](C)/C=C(\C)[C@@H](O)[C@@H](OC)C(=O)[C@H](C)C[C@H](C)/C=C/C=C/C=C(\C)[C@H](OCCOC3COC3)C[C@@H]3CC[C@@H](C)[C@@](O)(O3)C(=O)C(=O)N3CCCC[C@H]3C(=O)O2)CC[C@H]1O [I-71, (1R,9S,12S,15R,16E,18R,19R,21R,23S,24E,26E,28E,30R,32S,35R)-1,18-dihydroxy-12-[(1R)-2-[(1S,3R,4R)-4-hydroxy-3-methoxy-cyclohexyl]-1-methyl-ethyl]-19-methoxy-15,17,21,23,29,35-hexamethyl-30-[2-(oxetan-3-yloxy)ethoxy]-11,36-dioxa-4-azatricyclo[30.3.1.0^4,9]hexatriaconta-16,24,26,28-tetraene-2,3,10,14,20-pentone]
